Each structure is given as a SMILES string.

Data on 1 compound can be found in patent US20050233435A1, “Plasmodium axenic liver stages as a noninfectious whole organism malaria vaccine” (priority 2003, published 2005).

This assay concerns P. berghei sporozoites. The assay is described as follows: Host cell-free transformation of sporozoites into EEFs (liver stages). It counts as cell-based. As to conditions: Plasmodium berghei; lactacystin 10 μM in the culture medium. How it is done:
Transformation medium and quantification of transformation: Sporozoites were suspended in DMEM medium (BioWhittaker) containing 2 mM of L-glutamine, 4.5 g/l glucose and supplemented with 10% Fetal Bovine Serum (FBS; HyClone) and 500 U/ml penicillin/streptomycin and 1.25 μl/ml fungizon (Sigma). For the generation of Plasmodium axenic liver stages, 5×10^4 sporozoites were inoculated per well of a 8 well chamber slide (Labtek) and maintained at 37° C. in 5% CO2. Initially, slides were coated with Matrigel (Becton Dickinson) at density of 100 μg/cm^2 to improve the development. Matrigel improved attachment of the parasites to the slide, but was not essential for transformation.
To determine transformation rates for various conditions and slides, the host cell-free cultures of GFP-expressing P. berghei sporozoites were examined by fluorescence microscopy at 400× magnification using an Eclipse TE 300 fluorescence microscope (Nikon, Inc.) using a green filter (excitation wavelength 495 nm/emission wavelength 519 nm). EEFs were scored as completely transformed only when they appeared completely spherical with no sporozoite remnants visible. Each count was performed in triplicate on three independent experiments done with sporozoites isolated from different batches of infected mosquitoes.

Turning to `CC(=O)N[C@@H](CSC(=O)[C@]1([C@@H](O)C(C)C)NC(=O)[C@H](C)[C@@H]1O)C(=O)O` [lactacystin], the inhibition (commonly the change of the read-out against control, counted positive when it falls) at 10 µM was about 70%.
